Data from PubChem BioAssay AID256 (DTP/NCI, 2004).
“And” between values parts separate entries of the source, which are not always exact repeats. Identical values can stand only once. Inconclusive results and toxic doses are left out.

System: CD2F1 mice, L1210 leukemia ip, survival T/C
Test: NCI In Vivo Anticancer Drug Screen. Data for tumor model L1210 Leukemia (intraperitoneal) in CD2F1 (CDF1) mice
Settings: higher = longer survival
Outline: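 Ratio T/C, where T is the treated-group value and C the vehicle-dosed control value, from mice implanted with a transplantable tumor.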

O=NN(CCCl)C(=O)NC1CCCCC1 was tested. Which T/C (endpoint: mean survival time, dose: 0.5 mg/kg/injection, schedule: Q03HX008 (oral), vehicle: saline) did it give?
Its T/C is 214 % of control.

What about the T/C (endpoint: mean survival time, dose: 0.5 mg/kg/injection, schedule: Q03HX024 (oral), vehicle: saline) of the same compound?
The T/C was 290 % of control.

And the T/C (endpoint: mean survival time, dose: 0.5 mg/kg/injection, schedule: Q03HX040 (oral), vehicle: saline)?
Its T/C is 200 % of control.

And the T/C (endpoint: mean survival time, dose: 1.0 mg/kg/injection, schedule: Q01DX001 (ip), vehicle: saline)?
Its T/C is 98 % of control.

What about the T/C (endpoint: mean survival time, dose: 1.0 mg/kg/injection, schedule: Q01DX005 (ip), vehicle: saline) of the same compound?
Its T/C is 113 % of control.

And the T/C (endpoint: mean survival time, dose: 1.0 mg/kg/injection, schedule: Q01DX009 (ip), vehicle: saline)?
The T/C was 100 % of control.

What about the T/C (endpoint: mean survival time, dose: 1.0 mg/kg/injection, schedule: Q03HX024 (oral), vehicle: saline) of the same compound?
The T/C was 194 % of control.

And the T/C (endpoint: mean survival time, dose: 1.0 mg/kg/injection, schedule: Q03HX040 (oral), vehicle: saline)?
The T/C was 96 % of control.

What about the T/C (endpoint: mean survival time, dose: 2.0 mg/kg/injection, schedule: Q03HX008 (oral), vehicle: saline) of the same compound?
Its T/C is 338 % of control.

And the T/C (endpoint: mean survival time, dose: 4.0 mg/kg/injection, schedule: Q01DX001 (ip), vehicle: other)?
Its T/C is 109 % of control.

And the T/C (endpoint: mean survival time, dose: 4.0 mg/kg/injection, schedule: Q03HX024 (oral), vehicle: saline)?
The T/C was 96 % of control.

What about the T/C (endpoint: mean survival time, dose: 8.0 mg/kg/injection, schedule: Q01DX001 (ip), vehicle: saline) of the same compound?
Its T/C is 108 % of control.

And the T/C (endpoint: mean survival time, dose: 8.0 mg/kg/injection, schedule: Q01DX001 (oral), vehicle: saline)?
The T/C was 100 % of control.

And the T/C (endpoint: mean survival time, dose: 8.0 mg/kg/injection, schedule: Q01DX005 (ip), vehicle: saline)?
The T/C was 267 % of control.

What about the T/C (endpoint: mean survival time, dose: 8.0 mg/kg/injection, schedule: Q01DX009 (ip), vehicle: saline) of the same compound?
The T/C was 191 % of control.

And the T/C (endpoint: mean survival time, dose: 8.0 mg/kg/injection, schedule: Q03HX008 (ip), vehicle: saline)?
The T/C was 108 % of control.

And the T/C (endpoint: mean survival time, dose: 8.0 mg/kg/injection, schedule: Q04DX003 (ip), vehicle: saline)?
Its T/C is 124 % of control.

And the T/C (endpoint: mean survival time, dose: 9.0 mg/kg/injection, schedule: Q01DX001 (ip), vehicle: carboxymethylcellulose (CMC))?
Its T/C is 111 % of control.

What about the T/C (endpoint: mean survival time, dose: 16.0 mg/kg/injection, schedule: Q01DX001 (ip), vehicle: other) of the same compound?
The T/C was 169 % of control.

What about the T/C (endpoint: mean survival time, dose: 16.0 mg/kg/injection, schedule: Q01DX005 (ip), vehicle: saline) of the same compound?
The T/C was 393 % of control.

What about the T/C (endpoint: mean survival time, dose: 16.0 mg/kg/injection, schedule: Q01DX009 (ip), vehicle: saline) of the same compound?
The T/C was 315 % of control.

What about the T/C (endpoint: mean survival time, dose: 16.0 mg/kg/injection, schedule: Q03HX024 (ip), vehicle: saline) of the same compound?
The T/C was 210 % of control.

What about the T/C (endpoint: mean survival time, dose: 16.0 mg/kg/injection, schedule: Q03HX040 (ip), vehicle: saline) of the same compound?
Its T/C is 217 % of control.

What about the T/C (endpoint: mean survival time, dose: 16.0 mg/kg/injection, schedule: Q04DX003 (ip), vehicle: saline + alcohol) of the same compound?
The T/C was 158 % of control and 425 % of control.

And the T/C (endpoint: mean survival time, dose: 16.0 mg/kg/injection, schedule: Q04DX003 (ip), vehicle: saline)?
Its T/C is 279 % of control.

And the T/C (endpoint: mean survival time, dose: 22.0 mg/kg/injection, schedule: Q01DX001 (ip), vehicle: carboxymethylcellulose (CMC))?
Its T/C is 178 % of control.

And the T/C (endpoint: mean survival time, dose: 32.0 mg/kg/injection, schedule: Q01DX001 (ip), vehicle: other)?
Its T/C is 348 % of control.

And the T/C (endpoint: mean survival time, dose: 32.0 mg/kg/injection, schedule: Q01DX001 (ip), vehicle: saline)?
Its T/C is 157 % of control.

What about the T/C (endpoint: mean survival time, dose: 32.0 mg/kg/injection, schedule: Q01DX001 (oral), vehicle: saline) of the same compound?
Its T/C is 118 % of control.

And the T/C (endpoint: mean survival time, dose: 32.0 mg/kg/injection, schedule: Q01DX005 (ip), vehicle: saline)?
The T/C was 393 % of control.

And the T/C (endpoint: mean survival time, dose: 32.0 mg/kg/injection, schedule: Q01DX005 (oral), vehicle: saline)?
Its T/C is 310 % of control.

And the T/C (endpoint: mean survival time, dose: 32.0 mg/kg/injection, schedule: Q01DX009 (ip), vehicle: saline)?
The T/C was 224 % of control.

What about the T/C (endpoint: mean survival time, dose: 32.0 mg/kg/injection, schedule: Q01DX009 (oral), vehicle: saline) of the same compound?
Its T/C is 159 % of control.

And the T/C (endpoint: mean survival time, dose: 32.0 mg/kg/injection, schedule: Q03HX008 (ip), vehicle: saline)?
Its T/C is 191 % of control.

And the T/C (endpoint: mean survival time, dose: 32.0 mg/kg/injection, schedule: Q03HX024 (ip), vehicle: saline)?
Its T/C is 421 % of control.

What about the T/C (endpoint: mean survival time, dose: 32.0 mg/kg/injection, schedule: Q03HX040 (ip), vehicle: saline) of the same compound?
The T/C was 432 % of control.

And the T/C (endpoint: mean survival time, dose: 32.0 mg/kg/injection, schedule: Q04DX003 (ip), vehicle: saline + alcohol)?
The T/C was 515 % of control.

What about the T/C (endpoint: mean survival time, dose: 32.0 mg/kg/injection, schedule: Q04DX003 (ip), vehicle: saline) of the same compound?
The T/C was 406 % of control.

What about the T/C (endpoint: mean survival time, dose: 32.0 mg/kg/injection, schedule: Q04DX003 (oral), vehicle: saline) of the same compound?
Its T/C is 267 % of control.

And the T/C (endpoint: mean survival time, dose: 33.0 mg/kg/injection, schedule: Q01DX001 (ip), vehicle: carboxymethylcellulose (CMC))?
The T/C was 208 % of control.

What about the T/C (endpoint: mean survival time, dose: 48.0 mg/kg/injection, schedule: Q04DX003 (ip), vehicle: saline + alcohol) of the same compound?
Its T/C is 82 % of control.

And the T/C (endpoint: mean survival time, dose: 50.0 mg/kg/injection, schedule: Q01DX001 (ip), vehicle: carboxymethylcellulose (CMC))?
Its T/C is 352 % of control.

What about the T/C (endpoint: mean survival time, dose: 64.0 mg/kg/injection, schedule: Q01DX001 (ip), vehicle: other) of the same compound?
Its T/C is 208 % of control.

What about the T/C (endpoint: mean survival time, dose: 64.0 mg/kg/injection, schedule: Q01DX001 (ip), vehicle: saline) of the same compound?
The T/C was 411 % of control.

And the T/C (endpoint: mean survival time, dose: 64.0 mg/kg/injection, schedule: Q01DX005 (ip), vehicle: saline)?
Its T/C is 98 % of control.

What about the T/C (endpoint: mean survival time, dose: 64.0 mg/kg/injection, schedule: Q01DX005 (oral), vehicle: saline) of the same compound?
The T/C was 107 % of control.

And the T/C (endpoint: mean survival time, dose: 64.0 mg/kg/injection, schedule: Q01DX009 (ip), vehicle: saline)?
Its T/C is 120 % of control.

What about the T/C (endpoint: mean survival time, dose: 64.0 mg/kg/injection, schedule: Q01DX009 (oral), vehicle: saline) of the same compound?
The T/C was 95 % of control.

What about the T/C (endpoint: mean survival time, dose: 64.0 mg/kg/injection, schedule: Q03HX008 (ip), vehicle: saline) of the same compound?
The T/C was 437 % of control.

And the T/C (endpoint: mean survival time, dose: 64.0 mg/kg/injection, schedule: Q03HX024 (ip), vehicle: saline)?
The T/C was 330 % of control.

What about the T/C (endpoint: mean survival time, dose: 64.0 mg/kg/injection, schedule: Q03HX040 (ip), vehicle: saline) of the same compound?
The T/C was 259 % of control.

What about the T/C (endpoint: mean survival time, dose: 64.0 mg/kg/injection, schedule: Q04DX003 (ip), vehicle: saline) of the same compound?
The T/C was 209 % of control.

What about the T/C (endpoint: mean survival time, dose: 75.0 mg/kg/injection, schedule: Q01DX001 (ip), vehicle: carboxymethylcellulose (CMC)) of the same compound?
Its T/C is 332 % of control.

What about the T/C (endpoint: mean survival time, dose: 128.0 mg/kg/injection, schedule: Q01DX001 (ip), vehicle: saline) of the same compound?
Its T/C is 198 % of control.

And the T/C (endpoint: mean survival time, dose: 128.0 mg/kg/injection, schedule: Q01DX001 (oral), vehicle: saline)?
Its T/C is 330 % of control.

And the T/C (endpoint: mean survival time, dose: 128.0 mg/kg/injection, schedule: Q03HX008 (ip), vehicle: saline)?
Its T/C is 437 % of control.

What about the T/C (endpoint: mean survival time, dose: 128.0 mg/kg/injection, schedule: Q03HX040 (ip), vehicle: saline) of the same compound?
Its T/C is 86 % of control.

And the T/C (endpoint: mean survival time, dose: 128.0 mg/kg/injection, schedule: Q04DX003 (oral), vehicle: saline)?
The T/C was 110 % of control.

What about the T/C (endpoint: mean survival time, dose: 256.0 mg/kg/injection, schedule: Q04DX003 (oral), vehicle: saline) of the same compound?
The T/C was 86 % of control.

And the T/C (endpoint: median survival time, dose: 1.0 mg/kg/injection, schedule: Q01DX009 (ip), vehicle: Klucel (hydroxypropylcellulose) (HPC))?
The T/C was 113 % of control and 106 % of control.

And the T/C (endpoint: median survival time, dose: 2.0 mg/kg/injection, schedule: Q01DX009 (ip), vehicle: Klucel (hydroxypropylcellulose) (HPC))?
The T/C was 113 % of control.

And the T/C (endpoint: median survival time, dose: 4.0 mg/kg/injection, schedule: Q04DX003 (ip), vehicle: saline + alcohol)?
The T/C was 105 % of control.

What about the T/C (endpoint: median survival time, dose: 8.0 mg/kg/injection, schedule: Q04DX003 (ip), vehicle: saline + alcohol) of the same compound?
Its T/C is 98 % of control.

And the T/C (endpoint: median survival time, dose: 8.4 mg/kg/injection, schedule: Q01DX001 (ip), vehicle: distilled water + Tween-80 + alcohol)?
Its T/C is 94 % of control.

What about the T/C (endpoint: median survival time, dose: 14.0 mg/kg/injection, schedule: Q01DX001 (ip), vehicle: distilled water + Tween-80 + alcohol) of the same compound?
The T/C was 100 % of control.

What about the T/C (endpoint: median survival time, dose: 14.0 mg/kg/injection, schedule: Q07DX003 (ip), vehicle: saline + alcohol) of the same compound?
The T/C was 157 % of control.

And the T/C (endpoint: median survival time, dose: 16.0 mg/kg/injection, schedule: Q04DX003 (ip), vehicle: saline + alcohol)?
Its T/C is 109 % of control.

What about the T/C (endpoint: median survival time, dose: 20.0 mg/kg/injection, schedule: Q07DX003 (ip), vehicle: saline + alcohol) of the same compound?
The T/C was 584 % of control.

And the T/C (endpoint: median survival time, dose: 26.0 mg/kg/injection, schedule: Q07DX003 (ip), vehicle: saline + alcohol)?
The T/C was 669 % of control.

What about the T/C (endpoint: median survival time, dose: 27.0 mg/kg/injection, schedule: Q01DX001 (ip), vehicle: carboxymethylcellulose (CMC)) of the same compound?
The T/C was 184 % of control.

What about the T/C (endpoint: median survival time, dose: 32.0 mg/kg/injection, schedule: Q04DX003 (ip), vehicle: saline + alcohol) of the same compound?
Its T/C is 438 % of control.

What about the T/C (endpoint: median survival time, dose: 33.0 mg/kg/injection, schedule: Q07DX003 (ip), vehicle: saline + alcohol) of the same compound?
Its T/C is 671 % of control.

What about the T/C (endpoint: median survival time, dose: 40.0 mg/kg/injection, schedule: Q01DX001 (ip), vehicle: carboxymethylcellulose (CMC)) of the same compound?
Its T/C is 722 % of control.

What about the T/C (endpoint: median survival time, dose: 40.0 mg/kg/injection, schedule: Q01DX001 (ip), vehicle: distilled water + Tween-80 + alcohol) of the same compound?
Its T/C is 154 % of control.

And the T/C (endpoint: median survival time, dose: 64.0 mg/kg/injection, schedule: Q01DX009 (ip), vehicle: Klucel (hydroxypropylcellulose) (HPC))?
The T/C was 96 % of control and 109 % of control.
